Columns and labels:
[1] = molecular target: Carbonic anhydrase 9 (Homo sapiens, UniProt Q16790)
[2] = molecular target: Carbonic anhydrase 1 (Homo sapiens, UniProt P00915); assay: Inhibition of human recombinant carbonic anhydrase 1 preincubated for 15 mins by stopped flow CO2 hydration method
[3] = molecular target: Carbonic anhydrase 12 (Homo sapiens, UniProt O43570); assay: Inhibition of human recombinant carbonic anhydrase 12 preincubated for 15 mins by stopped flow CO2 hydration method
Carbonic anhydrase 12, sequence (O43570 whole entry): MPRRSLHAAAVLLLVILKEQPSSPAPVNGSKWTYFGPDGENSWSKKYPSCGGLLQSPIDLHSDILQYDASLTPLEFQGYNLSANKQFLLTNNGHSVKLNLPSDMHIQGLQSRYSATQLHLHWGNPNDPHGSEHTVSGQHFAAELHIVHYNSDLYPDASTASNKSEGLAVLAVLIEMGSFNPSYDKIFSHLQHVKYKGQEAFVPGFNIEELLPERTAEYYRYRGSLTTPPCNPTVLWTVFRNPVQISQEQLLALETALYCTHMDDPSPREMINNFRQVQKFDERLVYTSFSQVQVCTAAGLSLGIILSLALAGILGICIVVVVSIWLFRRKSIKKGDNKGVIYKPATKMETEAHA

Carbonic anhydrase 1, sequence (P00915 whole entry): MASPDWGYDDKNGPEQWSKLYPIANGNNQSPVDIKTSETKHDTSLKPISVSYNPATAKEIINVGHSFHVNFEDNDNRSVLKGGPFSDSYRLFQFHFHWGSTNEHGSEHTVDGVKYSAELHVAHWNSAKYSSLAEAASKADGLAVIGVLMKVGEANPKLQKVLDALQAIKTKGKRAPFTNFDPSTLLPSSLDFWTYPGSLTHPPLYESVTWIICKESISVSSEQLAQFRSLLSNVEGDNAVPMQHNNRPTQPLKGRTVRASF

Structure (SMILES): NS(=O)(=O)c1ccc(CCNC(=O)NS(=O)(=O)c2ccccc2Cl)cc1
- Ki [1]: 78.9 nM
- Ki [2]: 52.8 nM
- Ki [3]: 5.1 nM

Structure (SMILES): Cc1ccc(S(=O)(=O)NC(=O)Nc2ccc3c(C)cc(=O)oc3c2)cc1
- Ki [2]: > 10000 nM
- Ki [3]: 9.4 nM

Structure (SMILES): Cc1cc(=O)oc2cc(NC(=O)NS(=O)(=O)c3ccc(Cl)cc3)ccc12
- Ki [2]: 5730 nM

Structure (SMILES): NS(=O)(=O)c1ccc(CCNC(=O)NS(=O)(=O)c2ccc(Cl)cc2)cc1
- Ki [1]: 9.7 nM
- Ki [2]: 57.8 nM
- Ki [3]: 5.6 nM

Structure (SMILES): Cc1cc(=O)oc2cc(NC(=O)NS(=O)(=O)c3ccccc3)ccc12
- Ki [1]: 90.7 nM
- Ki [2]: > 10000 nM
- Ki [3]: 68.5 nM

Structure (SMILES): Cc1ccc(S(=O)(=O)NC(=O)NCCc2ccc(S(N)(=O)=O)cc2)cc1
- Ki [1]: 9.2 nM
- Ki [2]: 67.1 nM
- Ki [3]: 6 nM

Structure (SMILES): NS(=O)(=O)c1ccc(CCNC(=O)NS(=O)(=O)c2ccc(F)cc2)cc1
- Ki [1]: 68.4 nM
- Ki [2]: 82.6 nM
- Ki [3]: 6.8 nM

Structure (SMILES): Cc1ccccc1S(=O)(=O)NC(=O)NCCc1ccc(S(N)(=O)=O)cc1
- Ki [2]: 64.2 nM
- Ki [3]: 6.4 nM

Structure (SMILES): Cc1cc(=O)oc2cc(NC(=O)NS(=O)(=O)c3ccccc3Cl)ccc12
- Ki [1]: 87.8 nM
- Ki [2]: 2380 nM
- Ki [3]: 7.6 nM

Structure (SMILES): NS(=O)(=O)c1ccc(CCNC(=O)NS(=O)(=O)c2ccccc2)cc1
- Ki [1]: 9.6 nM
- Ki [2]: 21.6 nM
- Ki [3]: 5.9 nM

Structure (SMILES): Cc1cc(=O)oc2cc(NC(=O)NS(=O)(=O)c3ccc(F)cc3)ccc12
- Ki [1]: 23.1 nM
- Ki [2]: > 10000 nM
- Ki [3]: 7.7 nM

Structure (SMILES): Cc1ccccc1S(=O)(=O)NC(=O)Nc1ccc2c(C)cc(=O)oc2c1
- Ki [2]: 4970 nM
- Ki [3]: 8.9 nM

— ChEMBL document CHEMBL3351299, “Structural insights on carbonic anhydrase inhibitory action, isoform selectivity, and potency of sulfonamides and coumarins incorporating arylsulfonylureido groups” (J Med Chem, 2014)
